Data from ChEMBL document CHEMBL1129583, “Nonclassical 2,4-diamino-8-deazafolate analogues as inhibitors of dihydrofolate reductases from rat liver, Pneumocystis carinii, and Toxoplasma gondii” (J Med Chem, 1996).

Columns and labels:
Dihydrofolate reductase = molecular target: T1, Dihydrofolate reductase (Rattus norvegicus, UniProt Q920D2)
T1 sequence (Q920D2 whole entry): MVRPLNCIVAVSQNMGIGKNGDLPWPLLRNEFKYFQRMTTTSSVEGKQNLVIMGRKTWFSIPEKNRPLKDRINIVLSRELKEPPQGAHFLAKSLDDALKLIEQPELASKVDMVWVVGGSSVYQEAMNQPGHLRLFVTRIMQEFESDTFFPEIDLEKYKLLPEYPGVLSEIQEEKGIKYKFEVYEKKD
Description: Inhibitory activity against rat liver dihydrofolate reductase.

Pneumocystis carinii = experiment: Ratio of inhibitory concentration of rat liver and Pneumocystis carinii DHFR.
[1] = molecular target: T2, Bifunctional dihydrofolate reductase-thymidylate synthase (Toxoplasma gondii, UniProt Q07422)
T2 sequence (Q07422 whole entry): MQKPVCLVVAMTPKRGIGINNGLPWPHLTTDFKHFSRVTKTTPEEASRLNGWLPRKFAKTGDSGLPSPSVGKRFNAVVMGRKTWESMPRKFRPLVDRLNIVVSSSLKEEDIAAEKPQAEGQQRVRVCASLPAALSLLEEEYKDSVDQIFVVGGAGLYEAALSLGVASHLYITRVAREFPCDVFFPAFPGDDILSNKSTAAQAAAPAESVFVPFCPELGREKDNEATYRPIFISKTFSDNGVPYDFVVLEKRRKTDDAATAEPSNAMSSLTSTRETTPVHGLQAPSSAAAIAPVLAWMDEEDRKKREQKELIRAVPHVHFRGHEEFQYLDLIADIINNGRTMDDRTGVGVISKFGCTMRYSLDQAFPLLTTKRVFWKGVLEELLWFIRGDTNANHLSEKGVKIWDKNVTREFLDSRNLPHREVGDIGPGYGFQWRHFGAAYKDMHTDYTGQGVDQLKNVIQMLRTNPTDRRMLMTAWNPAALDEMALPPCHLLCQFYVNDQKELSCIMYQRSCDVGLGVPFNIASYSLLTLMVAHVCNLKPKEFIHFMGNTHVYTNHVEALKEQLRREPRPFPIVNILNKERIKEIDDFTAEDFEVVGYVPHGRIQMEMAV
Description: Inhibitory activity against Toxoplasma gondii dihydrofolate reductase.

[2] = pRatio of inhibitory concentration of Rat liver and Pneumocystis carinii DHFR
[3] = Ratio of inhibitory concentration of Rat liver and Pneumocystis carinii DHFR
[4] = Ratio of inhibitory concentration of Rat liver and Toxoplasma gondii DHFR

IC50 (Dihydrofolate reductase) | Selectivity (Pneumocystis carinii) | Selectivity [2] | Selectivity [3] | SMILES | IC50 [1] | Selectivity [4]
16 nM | 0.1 | – | – | COc1ccc(N(C)Cc2ccc3nc(N)nc(N)c3n2)c(OC)c1 | 14 nM | –
58 nM | 0.12 | – | – | CN(Cc1ccc2nc(N)nc(N)c2n1)c1ccc(Cl)cc1Cl | 50 nM | –
73 nM | 0.09 | – | – | COc1ccc(NCc2ccc3nc(N)nc(N)c3n2)cc1 | 54 nM | –
82 nM | – | 0.082 | – | Nc1nc(N)c2nc(CNc3c(Cl)cccc3Cl)ccc2n1 | 28 nM | –
52 nM | 0.43 | – | – | CN(Cc1ccc2nc(N)nc(N)c2n1)c1c(Cl)cc(Cl)cc1Cl | 44 nM | –
32 nM | 0.13 | – | – | CN(Cc1ccc2nc(N)nc(N)c2n1)c1ccc(C(=O)C(F)(F)F)cc1 | 46 nM | –
44 nM | 0.07 | – | – | Nc1nc(N)c2nc(CNc3cc(Cl)c(Cl)c(Cl)c3)ccc2n1 | 87 nM | –
570 nM | 0.29 | – | – | Nc1nc(N)c2nc(CNc3c(Cl)cc(Cl)cc3Cl)ccc2n1 | 46 nM | –
520 nM | 0.93 | – | – | COc1ccc(SCc2cnc3nc(N)nc(N)c3c2C)cc1 | 63 nM | –
17 nM | 0.45 | – | – | CN(Cc1ccc2nc(N)nc(N)c2n1)c1ccc(Cl)c(Cl)c1 | 27 nM | –
320 nM | 0.06 | – | – | COc1ccc(NCc2ccc3nc(N)nc(N)c3n2)c(OC)c1 | 140 nM | –
246000 nM | 25.9 | – | – | Nc1nc(N)c2nc(CSc3ccccc3)cnc2n1 | 770 nM | –
200 nM | 0.13 | – | – | Nc1nc(N)c2nc(CNc3cc(Cl)ccc3Cl)ccc2n1 | 91 nM | –
88 nM | 0.12 | – | – | Nc1nc(N)c2nc(CNc3ccc(Cl)cc3Cl)ccc2n1 | 50 nM | –
48 nM | 0.28 | – | – | CN(Cc1ccc2nc(N)nc(N)c2n1)c1c(Cl)cccc1Cl | 30 nM | –
– | 0.2 | – | – | COc1cc(N(C)Cc2ccc3nc(N)nc(N)c3n2)cc(OC)c1OC | – | –
60 nM | 0.07 | – | – | COc1ccc(NCc2ccc3nc(N)nc(N)c3n2)cc1OC | 90 nM | –
200 nM | 0.12 | – | – | COc1cccc(NCc2ccc3nc(N)nc(N)c3n2)c1 | 100 nM | –
47 nM | 0.31 | – | – | CN(Cc1ccc2nc(N)nc(N)c2n1)c1cc(Cl)ccc1Cl | 25 nM | –
54 nM | 0.13 | – | – | Nc1nc(N)c2nc(CNc3ccc(Cl)c(Cl)c3)ccc2n1 | 57 nM | –
24 nM | 0.08 | – | – | CN(Cc1ccc2nc(N)nc(N)c2n1)c1ccccc1 | 8.4 nM | –

IC50 (Dihydrofolate reductase) | Selectivity (Pneumocystis carinii) | Selectivity [2] | Selectivity [3] | SMILES | IC50 [1] | Selectivity [4]
2.7 nM | 0.02 | – | – | COc1ccc(N(C)Cc2ccc3nc(N)nc(N)c3n2)cc1OC | 9.8 nM | –
18 nM | 0.072 | – | – | COc1ccc(N(C)Cc2ccc3nc(N)nc(N)c3n2)cc1 | 16 nM | –
35 nM | 0.36 | – | – | COc1cccc(N(C)Cc2ccc3nc(N)nc(N)c3n2)c1 | 15 nM | –
40 nM | – | – | 0.17 | Nc1nc(N)c2nc(CNc3cccc4ccccc34)ccc2n1 | 26 nM | 1.54
87 nM | 0.35 | – | – | CN(Cc1ccc2nc(N)nc(N)c2n1)c1cc(Cl)c(Cl)c(Cl)c1 | 38 nM | –
120 nM | 0.24 | – | – | COc1ccccc1N(C)Cc1ccc2nc(N)nc(N)c2n1 | 26 nM | –
2.5 nM | 0.01 | – | – | CC(=O)c1ccc(NCc2ccc3nc(N)nc(N)c3n2)cc1 | 27 nM | –
280 nM | 0.06 | – | – | COc1ccc(OC)c(NCc2ccc3nc(N)nc(N)c3n2)c1 | 120 nM | –
140 nM | 0.07 | – | – | Nc1nc(N)c2nc(CNc3cccc(Cl)c3)ccc2n1 | 130 nM | –
5.1 nM | 0.04 | – | – | CC(=O)c1ccc(N(C)Cc2ccc3nc(N)nc(N)c3n2)cc1 | 15 nM | –
260 nM | 0.15 | – | – | Nc1nc(N)c2nc(CNc3ccccc3)ccc2n1 | 85 nM | –
420 nM | 0.16 | – | – | COc1ccccc1NCc1ccc2nc(N)nc(N)c2n1 | 120 nM | –
120 nM | 0.57 | – | – | CN(Cc1ccc2nc(N)nc(N)c2n1)c1ccccc1Cl | 15 nM | –
200 nM | 0.1 | – | – | COc1cc(NCc2ccc3nc(N)nc(N)c3n2)cc(OC)c1OC | 40 nM | –
15 nM | 0.07 | – | – | C#CCN(Cc1ccc2nc(N)nc(N)c2n1)c1ccc(C(C)=O)cc1 | 20 nM | –
50 nM | 0.24 | – | – | COc1ccc(OC)c(N(C)Cc2ccc3nc(N)nc(N)c3n2)c1 | 25 nM | –
140 nM | 0.26 | – | – | Nc1nc(N)c2nc(CNc3ccccc3Cl)ccc2n1 | 110 nM | –
7.5 nM | 0.06 | – | – | C#CCN(Cc1ccc2nc(N)nc(N)c2n1)c1ccc(C(=O)C(F)(F)F)cc1 | 54 nM | –
– | 0.032 | – | – | CN(Cc1ccc2nc(N)nc(N)c2n1)c1cccc(Cl)c1 | – | –
210 nM | – | – | 0.13 | Nc1nc(N)c2nc(CNc3ccc4ccccc4c3)ccc2n1 | 160 nM | 1.31

SMILES | IC50 (Dihydrofolate reductase) | Selectivity (Pneumocystis carinii) | Selectivity [2] | Selectivity [3] | IC50 [1] | Selectivity [4]
Nc1nc(N)c2nc(CSc3ccccc3)ccc2n1 | 520 nM | 0.26 | – | – | 130 nM | –
CN(Cc1ccc2nc(N)nc(N)c2n1)c1cccc2ccccc12 | 7.3 nM | 0.18 | – | – | 18 nM | –
Nc1nc(N)c2nc(CSc3ccc4ccccc4c3)ccc2n1 | 86 nM | 0.23 | – | – | 48 nM | –
CN(Cc1ccc2nc(N)nc(N)c2n1)c1ccc2ccccc2c1 | 7.2 nM | 0.14 | – | – | 16 nM | –
Nc1nc(N)c2nc(CSc3cccc4ccccc34)ccc2n1 | 160 nM | 0.34 | – | – | 49 nM | –
